We go through 23 compounds from US10336730B2, “Substituted glycine derived FXIA inhibitors” (BRISTOL-MYERS SQUIBB COMPANY, priority 2015, dated 2019).

As a reminder, the Ki is a measure of affinity in units of concentration, obtained from inhibition or displacement. Low values mean higher affinity, high ones lower affinity.

This test deals with T1, purified human Factor XIa (Homo sapiens, UniProt P03951).
T1 construct: purchased Haematologic Technologies
T1 sequence (P03951 388-625 limits assumed): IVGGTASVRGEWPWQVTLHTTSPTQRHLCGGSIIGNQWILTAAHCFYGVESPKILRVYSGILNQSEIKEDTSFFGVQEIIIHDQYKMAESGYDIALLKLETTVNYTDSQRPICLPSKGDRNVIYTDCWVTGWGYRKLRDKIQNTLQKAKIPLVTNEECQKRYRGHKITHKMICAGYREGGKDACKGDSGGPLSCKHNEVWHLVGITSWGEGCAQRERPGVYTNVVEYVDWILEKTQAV
T1 sequence (P03951 19-387 partner limits assumed): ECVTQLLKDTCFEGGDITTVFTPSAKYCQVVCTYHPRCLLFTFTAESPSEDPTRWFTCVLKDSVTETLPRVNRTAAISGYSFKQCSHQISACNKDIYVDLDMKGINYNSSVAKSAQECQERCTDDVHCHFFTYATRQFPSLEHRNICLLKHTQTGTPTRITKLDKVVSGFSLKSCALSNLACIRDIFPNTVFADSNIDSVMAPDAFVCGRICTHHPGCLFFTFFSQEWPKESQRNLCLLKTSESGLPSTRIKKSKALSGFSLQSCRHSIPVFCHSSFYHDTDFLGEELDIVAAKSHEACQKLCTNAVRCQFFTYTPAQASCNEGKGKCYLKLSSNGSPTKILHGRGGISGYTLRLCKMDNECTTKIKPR
The test can be described thus: Factor XIa enzyme inhibition assay (chromogenic substrate S-2366), Ki. The test is classed as biochemical. The conditions noted are these: substrate S-2366, pH 7.4. On the procedure:
The effectiveness of compounds of the present invention as inhibitors of the coagulation Factors XIa, VIIa, IXa, Xa, XIIa, plasma kallikrein, thrombin, chemytrypsin or trypsin can be determined using a relevant purified serine protease, respectively, and an appropriate synthetic substrate. The rate of hydrolysis of the chromogenic or fluorogenic substrate by the relevant serine protease was measured both in the absence and presence of compounds of the present invention. […] A decrease in the rate of absorbance or fluorescence change in the presence of inhibitor is indicative of enzyme inhibition. Such methods are known to one skilled in the art. The results of this assay are expressed as the inhibitory constant, Ki.
Factor XIa determinations were made in 50 mM HEPES buffer at pH 7.4 containing 145 mM NaCl, 5 mM KCl, and 0.1% PEG 8000 (polyethylene glycol; JT Baker or Fisher Scientific). Determinations were made using purified human Factor XIa at a final concentration of […] (Haematologic Technologies) and the synthetic substrate S-2366 (pyroGlu-Pro-Arg-pNA; CHROMOGENIX® or AnaSpec) at a concentration of 0.0002-0.001 M.
Values of Ki were determined by allowing the protease to react with the substrate in the presence of the inhibitor. Reactions were allowed to go for periods of 20-180 minutes (depending on the protease) and the velocities (rate of absorbance or fluorescence change versus time) were measured. The following relationships were used to calculate Ki values: (Vmax*S)/(Km+S) (vo−vs)/vs=I/(Ki*(1+S/Km)) for a competitive inhibitor with one binding site; or vs/vo=A+(B−A)/(1+(IC50/(I)^n)); and Ki=IC50/(1+S/Km) for a competitive inhibitor where: […]
The compound `CN1CCC(CNC(=O)[C@H](Cc2ccccc2)n2cnc(-c3cc(Cl)ccc3-n3cc(Cl)nn3)cc2=O)C1` (mixture of isomers) [Example 48, (2S)-2-(4-(5-chloro-2-(4-chloro-1H-1,2,3-triazol-1-yl)phenyl)-6-oxopyrimidin-1(6H)-yl)-N-((1-methylpyrrolidin-3-yl)methyl)-3-phenylpropanamide] yielded a Ki of 7370 nM.
In turn, `O=C([C@H](Cc1ccccc1)n1cnc(-c2cc(Cl)ccc2-n2cc(Cl)nn2)cc1=O)N1CCC(N2C(=O)CCC2O)CC1` (mixture of isomers) [Example 49, 6-(5-chloro-2-(4-chloro-1H-1,2,3-triazol-1-yl)phenyl)-3-((2S)-1-(4-(2-hydroxy-5-oxopyrrolidin-1-yl)piperidin-1-yl)-1-oxo-3-phenylpropan-2-yl)pyrimidin-4(3H)-one] gave an inhibition constant (Ki) of 7370 nM. This counts as single-digit micromolar.
The same measure for `N#Cc1cccc(C[C@@H](C(=O)Nc2ccc(C(=O)O)cc2)N2CCC(c3cc(Cl)ccc3-n3ccnn3)=CC2=O)c1` [Compound 138, (S)-4-(2-(4-(5-chloro-2-(1H-1,2,3-triazol-1-yl)phenyl)-6-oxo-3,6-dihydropyridin-1(2H)-yl)-3-(3-cyanophenyl)propanamido) benzoic Acid]: 41.6 nM; for `NC(=O)c1cccc(C[C@@H](C(=O)Nc2ccc(C(=O)O)cc2)N2CCC(c3cc(Cl)ccc3-n3ccnn3)=CC2=O)c1` [Compound 139, (S)-4-(3-(3-carbamoylphenyl)-2-(4-(5-chloro-2-(1H-1,2,3-triazol-1-yl)phenyl)-6-oxo-3,6-dihydropyridin-1(2H)-yl)propanamido)benzoic Acid]: 25.2 nM; for `CCOC(=O)Cc1ccc(NC(=O)[C@H](Cc2ccccc2)n2cnc(-c3cc(Cl)ccc3-n3cc(Cl)nn3)cc2=O)cc1` [Example 20, ethyl (S)-2-(4-(2-(4-(5-chloro-2-(4-chloro-1H-1,2,3-triazol-1-yl)phenyl)-6-oxopyrimidin-1(6H)-yl)-3-phenylpropanamido)phenyl)acetate]: 128 nM.
`O=C(Nc1ncn(CC2CCCC2)n1)[C@H](Cc1ccccc1)n1cnc(-c2cc(Cl)ccc2-n2cc(Cl)nn2)cc1=O` [Example 21, (S)-2-(4-(5-chloro-2-(4-chloro-1H-1,2,3-triazol-1-yl)phenyl)-6-oxopyrimidin-1(6H)-yl)-N-(1-(cyclopentylmethyl)-1H-1,2,4-triazol-3-yl)-3-phenylpropanamide] displayed a Ki of 553 nM.
Consider `COC(=O)c1ccc(NC(=O)[C@H](Cc2ccccc2)n2cnc(-c3cc(Cl)ccc3-n3cc(Cl)nn3)cc2=O)cc1` [Example 22, methyl (S)-4-(2-(4-(5-chloro-2-(4-chloro-1H-1,2,3-triazol-1-yl)phenyl)-6-oxopyrimidin-1(6H)-yl)-3-phenylpropanamido)benzoate], for which affinity was put at a Ki of 83.7 nM. Compared with the last compound, the Ki is about 6.6-fold lower.
Under `O=C(Nc1ccc(Cc2ccncc2)cc1)[C@H](Cc1ccccc1)n1cnc(-c2cc(Cl)ccc2-n2cc(Cl)nn2)cc1=O` [Example 24, (S)-2-(4-(5-chloro-2-(4-chloro-1H-1,2,3-triazol-1-yl)phenyl)-6-oxopyrimidin-1(6H)-yl)-3-phenyl-N-(4-(pyridin-4-ylmethyl)phenyl)propanamide] stands 112 nM; under `O=C(Nc1ccc(-c2ccncc2)cc1)[C@H](Cc1ccccc1)n1cnc(-c2cc(Cl)ccc2-n2cc(Cl)nn2)cc1=O` [Example 25, (S)-2-(4-(5-chloro-2-(4-chloro-1H-1,2,3-triazol-1-yl)phenyl)-6-oxopyrimidin-1(6H)-yl)-3-phenyl-N-(4-(pyridin-4-yl)phenyl)propanamide], 49.6 nM.
On to `O=C(Nc1cccc2[nH]ccc12)[C@H](Cc1ccccc1)n1cnc(-c2cc(Cl)ccc2-n2cc(Cl)nn2)cc1=O` [Example 26, (S)-2-(4-(5-chloro-2-(4-chloro-1H-1,2,3-triazol-1-yl)phenyl)-6-oxopyrimidin-1(6H)-yl)-N-(1H-indol-4-yl)-3-phenylpropanamide], for which the Ki stood at 22.3 nM.
In the case of `Cn1cnc2cc(NC(=O)[C@H](Cc3ccccc3)n3cnc(-c4cc(Cl)ccc4-n4cc(Cl)nn4)cc3=O)cnc21` [Example 27, (S)-2-(4-(5-chloro-2-(4-chloro-1H-1,2,3-triazol-1-yl)phenyl)-6-oxopyrimidin-1(6H)-yl)-N-(3-methyl-3H-imidazo[4,5-b]pyridin-6-yl)-3-phenylpropanamide], the Ki is 420 nM.
Under `O=C(Nc1ccc2c(c1)CS(=O)(=O)C2)[C@H](Cc1ccccc1)n1cnc(-c2cc(Cl)ccc2-n2cc(Cl)nn2)cc1=O` [Example 28, (S)-2-(4-(5-chloro-2-(4-chloro-1H-1,2,3-triazol-1-yl)phenyl)-6-oxopyrimidin-1(6H)-yl)-N-(2,2-dioxido-1,3-dihydrobenzo[c]thiophen-5-yl)-3-phenylpropanamide] stands 80.3 nM; under `O=C(Nc1cccc2ncccc12)[C@H](Cc1ccccc1)n1cnc(-c2cc(Cl)ccc2-n2cc(Cl)nn2)cc1=O` [Example 29, (S)-2-(4-(5-chloro-2-(4-chloro-1H-1,2,3-triazol-1-yl)phenyl)-6-oxopyrimidin-1(6H)-yl)-3-phenyl-N-(quinolin-5-yl)propanamide], 162 nM; under `O=C(Nc1ccc2ncncc2c1)[C@H](Cc1ccccc1)n1cnc(-c2cc(Cl)ccc2-n2cc(Cl)nn2)cc1=O` [Example 31, (S)-2-(4-(5-chloro-2-(4-chloro-1H-1,2.3-triazol-1-yl)phenyl)-6-oxopyrimidin-1(6H)-yl)-3-phenyl-N-(quinazolin-6-yl)propanamide], 10.3 nM.
The same measure for `Cn1cc(NC(=O)[C@H](Cc2ccccc2)n2cnc(-c3cc(Cl)ccc3-n3cc(Cl)nn3)cc2=O)nn1` [Example 32, (S)-2-(4-(5-chloro-2-(4-chloro-1H-1,2,3-triazol-1-yl)phenyl)-6-oxopyrimidin-1(6H)-yl)-N-(1-methyl-1H-1,2,3-triazol-4-yl)-3-phenylpropanamide]: 341 nM; for `Cc1nc2ccc(NC(=O)[C@H](Cc3ccccc3)n3cnc(-c4cc(Cl)ccc4-n4cc(Cl)nn4)cc3=O)cc2o1` [Example 33, (S)-2-(4-(5-chloro-2-(4-chloro-1H-1,2,3-triazol-1-yl)phenyl)-6-oxopyrimidin-1(6H)-yl)-N-(2-methylbenzo[d]oxazol-6-yl)-3-phenylpropanamide]: 37.8 nM; for `CCOC(=O)Cn1ccc(NC(=O)[C@H](Cc2ccccc2)n2cnc(-c3cc(Cl)ccc3-n3cc(Cl)nn3)cc2=O)n1` [Example 34, ethyl (S)-2-(3-(2-(4-(5-chloro-2-(4-chloro-1H-1,2,3-triazol-1-yl)phenyl)-6-oxopyrimidin-1(6H)-yl)-3-phenylpropanamido)-1H-pyrazol-1-yl)acetate]: 1660 nM.
Under `CC1(C)Oc2ccc(NC(=O)[C@H](Cc3ccccc3)n3cnc(-c4cc(Cl)ccc4-n4cc(Cl)nn4)cc3=O)nc2NC1=O` [Example 35, (S)-2-(4-(5-chloro-2-(4-chloro-1H-1,2,3-triazol-1-yl)phenyl)-6-oxopyrimidin-1(6H)-yl)-N-(2,2-dimethyl-3-oxo-3,4-dihydro-2H-pyrido[3,2-b][1,4]oxazin-6-yl)-3-phenylpropanamide] stands 4070 nM.
`O=C(Nc1cnns1)[C@H](Cc1ccccc1)n1cnc(-c2cc(Cl)ccc2-n2cc(Cl)nn2)cc1=O` [Example 36, (S)-2-(4-(5-chloro-2-(4-chloro-1H-1,2,3-triazol-1-yl)phenyl)-6-oxopyrimidin-1(6H)-yl)-3-phenyl-N-(1,2,3-thiadiazol-5-yl)propanamide] came in with a Ki of 1340 nM. This Ki lies about 3-fold lower than the previous one.
Compound `O=C(Nc1ccc(N2CCOCC2=O)cc1)[C@H](Cc1ccccc1)n1cnc(-c2cc(Cl)ccc2-n2cc(Cl)nn2)cc1=O` [Example 37, (S)-2-(4-(5-chloro-2-(4-chloro-1H-1,2,3-triazol-1-yl)phenyl)-6-oxopyrimidin-1(6H)-yl)-N-(4-(3-oxomorpholino)phenyl)-3-phenylpropanamide] displayed a Ki of 155 nM.
Under `O=C1NCc2cc(F)c(NC(=O)[C@H](Cc3ccccc3)n3cnc(-c4cc(Cl)ccc4-n4cc(Cl)nn4)cc3=O)cc21` [Example 38, (S)-2-(4-(5-chloro-2-(4-chloro-1H-1,2,3-triazol-1-yl)phenyl)-6-oxopyrimidin-1(6H)-yl)-N-(6-fluoro-3-oxoisoindolin-5-yl)-3-phenylpropanamide] stands 98.4 nM; under `Cc1ncn(-c2ccc(NC(=O)[C@H](Cc3ccccc3)n3cnc(-c4cc(Cl)ccc4-n4cc(Cl)nn4)cc3=O)cn2)n1` [Example 39, (S)-2-(4-(5-chloro-2-(4-chloro-1H-1,2,3-triazol-1-yl)phenyl)-6-oxopyrimidin-1(6H)-yl)-N-(6-(3-methyl-1H-1,2,4-triazol-1-yl)pyridin-3-yl)-3-phenylpropanamide], 110 nM; under `COC(=O)c1cc(NC(=O)[C@H](Cc2ccccc2)n2cnc(-c3cc(Cl)ccc3-n3cc(Cl)nn3)cc2=O)cn1C` [Example 40, methyl (S)-4-(2-(4-(5-chloro-2-(4-chloro-1H-1,2,3-triazol-1-yl)phenyl)-6-oxopyrimidin-1(6H)-yl)-3-phenylpropanamido)-1-methyl-1H-pyrrole-2-carboxylate], 172 nM.
